These results are taken from patent US8106096B2, “Compositions and methods for treatment of optic nerve diseases” (University of Maryland, Baltimore, priority 2008, dated 2012).

Entries after “also recorded” stand apart in the source; their conditions may differ.

Experiment [1] deals with retinal ganglion cells (RGC). Kind of experiment: Stereological analysis of RGC numbers after rAION (ON stroke). It counts as in vivo, rat.
Procedure: Stereological analysis of RGC numbers in naïve and rAION induced rat retinae treated with either PGJ2 or Vehicle (PBS). Animals were injected IV 1Xd for 3 days with either 100 mg/kg PGJ2 or PBS-vehicle. Animals were euthanized and retinae analyzed 30 days post-rAION induction. Average numbers based on 4 retinae/group; RGC stereology derived from Brn3a (+) RGC immunostaining.
Statistical analysis of 15-deoxy delta (12,14) PGJ2 administration to rats after optic nerve (ON) stroke. […] The ordinate represents the number of retinal ganglion cells in each retina. The abscissa represents the number of fields of cells counted to reach a statistically valid number as determined by the field of stereology. The green line represents the typical number of retinal ganglion cells in the untreated (naïve; no stroke) rat retina. The response of rat retina and optic nerve to vehicle treatment is shown in yellow. The response of PGJ2 treated animals is shown in Blue.
rAION-associated cell loss is analyzed using stereological analysis.
Rats were used for this experiment and ON stroke was administered to a 75% predicted loss of RGCs by the method of Bernstein et al., 2003, supra. RGC's were counted in each retina in the untreated (naïve; no stroke) and rats with rAION treated with PGJ2.
In experiment [2] the test system is optic nerve (ON) edema. Briefly: ON edema after rAION by direct fundus observation in the living animal. It counts as in vivo, rat. The conditions noted are these: post-infarct administration (systemic and intravitreal), first 3 days post-induction; 1-3 days following rAION. An excerpt:
PGJ2-treated animals have 72.4% of the number of naïve RGCs compared with 34.3 for vehicle treated animals (black bar, FIG. 2).

The subject of experiment [3] is ED-1(+) extrinsic macrophages. Briefly: Extrinsic macrophage (ED-1(+)) recruitment into ON after rAION induction. It counts as in vivo, rodent. An excerpt: The present inventor has evaluated the location of early ON-macrophage activity following rAION induction, using antibodies for both general cellular inflammation (IBA-1) and extrinsic macrophages (detected by antibody to ED-1). […] Few, if any extrinsic macrophages are present in normal uninfarcted ON (results not shown). Following rAION induction, ED-1(+) extrinsic macrophages enter the ON and cluster in the primary ischemic lesion site immediately behind the retina/ON junction. Little extrinsic macrophage infiltration occurs >250 microns post-ON/retina junction. […] Control (vehicle treated animals) show a similar pattern (data not shown). […] Extrinsic macrophages extend beyond the initial lesion site, even during early axonal degeneration occurring 6 days post-induction. Thus, it is possible to administer intraventricular GM-CSF to recruit extrinsic macrophages into the ON following rAION, and determine whether the macrophage recruitment approach is useful to enhancing ON-axonal repair and regeneration following ON infarct.

`CCCCC/C=C/C=C1/C(=O)C=C[C@@H]1C/C=C\CCCC(=O)O` [PGJ2, 15 deoxy delta 12,14 prostaglandin J2]: in experiment [1] (30 days post-rAION induction), the RGC survival entry is reported as “increased RGC survival”. In experiment [1] (rat rAION, IV 1Xd for 3 days, 100 mg/kg, 30 days post-rAION induction, Brn3a(+) RGC stereology), the “number of RGCs relative to naïve RGCs” value came out at 72.4%. In experiment [1] (rats, ON stroke to a 75% predicted loss of RGCs, PGJ2 treatment after stroke), the “preservation of the neurons whose axons comprise the optic nerve” value is recorded as 35-50%. For the same compound, the ON edema entry in experiment [2] is “reduced gross ON edema; also recorded: reduces ON edema”.
In the case of “GM-CSF: Granulocyte-Macrophage Colony Stimulating Factor; directly activates macrophages and recruits extrinsic macrophages”, the “numbers of ED-1(+) cells in ON” value in experiment [3] (1 ug stereotactically injected into the superior colliculus, 6 days post-induction, vehicle controls show a similar pattern) is “decreased numbers of ED-1(+) cells”. In experiment [3] (intraventricular injection, data not shown), the “recruitment of ED-1(+) cells in rAION-induced ONs” value is reported as “significantly enhanced recruitment of ED-1(+) cells”. Moreover, the “ability to recruit extrinsic macrophages” value in experiment [3] (rAION, IBA-1 and ED-1 antibodies, data not shown) was “has the ability to recruit extrinsic macrophages”.
